Values of other authors, collected in patent US20120309722A1, “THERAPEUTIC REGIMENS FOR THE TREATMENT OF IMMUNOINFLAMMATORY DISORDERS” (priority 2007, published 2012).

Experiments:
[1] = BNF guidelines; for Equivalent Dose to Prednisolone: Equal to 1 mg prednisolone: dose equivalent to 1 mg prednisolone; for Equivalent Dose to Prednisolone: Equal to 5 mg prednisolone: dose equivalent to 5 mg prednisolone
[2] = nasal administration; BNF 37 March 1999

CC(=O)OCC(=O)[C@@]12N=C(C)O[C@@H]1C[C@H]1[C@@H]3CCC4=CC(=O)C=C[C@]4(C)[C@H]3[C@@H](O)C[C@@]12C [deflazacort]
Equivalent Dose to Prednisolone: Equal to 1 mg prednisolone [1]: 1.2 mg | Equivalent Dose to Prednisolone: Equal to 5 mg prednisolone [1]: 6 mg

CC(=O)OCC(=O)[C@@]1(O)CC[C@H]2[C@@H]3CCC4=CC(=O)CC[C@]4(C)[C@H]3C(=O)C[C@@]21C [cortisone acetate]
Equivalent Dose to Prednisolone: Equal to 1 mg prednisolone [1]: 5 mg | Equivalent Dose to Prednisolone: Equal to 5 mg prednisolone [1]: 25 mg

methyl prednisone
Equivalent Dose to Prednisolone: Equal to 1 mg prednisolone [1]: 0.8 mg | Equivalent Dose to Prednisolone: Equal to 5 mg prednisolone [1]: 4 mg

C[C@]12CCC(=O)C=C1CC[C@@H]1[C@@H]2[C@@H](O)C[C@@]2(C)[C@H]1CC[C@]2(O)C(=O)CO [hydrocortisone]
Equivalent Dose to Prednisolone: Equal to 1 mg prednisolone [1]: 4 mg | Equivalent Dose to Prednisolone: Equal to 5 mg prednisolone [1]: 20 mg

C[C@]12C=CC(=O)C=C1CC[C@H]1[C@@H]3C[C@@H](O)[C@](O)(C(=O)CO)[C@@]3(C)C[C@H](O)[C@@]12F [triamcinolone]
broadly similar dose from clinical dosing equivalence [2]: 110 µg | Equivalent Dose to Prednisolone: Equal to 1 mg prednisolone [1]: 0.8 mg | Equivalent Dose to Prednisolone: Equal to 5 mg prednisolone [1]: 4 mg
